Laboratory results as given in ChEMBL document CHEMBL5728937, “Substituted tetrahydroquinolinone compounds as ROR gamma modulators” (2022).
pIC50: −log10 of the molar value.

Target: T1, Nuclear receptor ROR-gamma (Homo sapiens, UniProt P51449)
T1 sequence (P51449 whole entry): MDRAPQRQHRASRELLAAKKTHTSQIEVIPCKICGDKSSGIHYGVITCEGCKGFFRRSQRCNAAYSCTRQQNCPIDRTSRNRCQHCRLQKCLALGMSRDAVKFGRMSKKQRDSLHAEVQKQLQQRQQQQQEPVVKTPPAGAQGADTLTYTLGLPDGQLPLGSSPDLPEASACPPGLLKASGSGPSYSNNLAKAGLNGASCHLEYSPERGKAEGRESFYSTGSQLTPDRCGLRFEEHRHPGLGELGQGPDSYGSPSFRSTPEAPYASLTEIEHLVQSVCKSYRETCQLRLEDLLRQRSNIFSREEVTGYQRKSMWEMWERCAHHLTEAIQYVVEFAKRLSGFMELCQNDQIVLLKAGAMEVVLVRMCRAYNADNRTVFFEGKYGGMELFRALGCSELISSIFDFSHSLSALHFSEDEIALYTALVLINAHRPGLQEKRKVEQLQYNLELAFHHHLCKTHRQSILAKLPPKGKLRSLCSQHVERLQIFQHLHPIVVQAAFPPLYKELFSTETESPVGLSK
Assay: Radio-Ligand Binding Assay: ROR gamma radioligand binding was performed using 3H 25-Hydroxycholesterol in a competitive displacement assay using dextran charcoal method. Using 5 nM 3H 25-Hydroxycholesterol with 300 ng RORγ LBD (in house expressed in E. coli) along with the compound were incubated in the binding buffer (50 mM HEPES, pH 7.5, 150 mM NaCl, 0.01% BSA and 5 mM MgCl2) for 30 min at room temperature. Then dextran-charcoal mixture (0.5% charcoal: 0.05% dextran) was used for separation and the supernatant was read on the Perkin Elmer Trilux Microbeta counter. Dose response curves were generated for 10 compound concentrations using GraphPad Prism software Version 5 (San Diego, Calif., USA) using non-linear regression curve fit for sigmoidal dose response (variable slope).

pIC50: < 6.52
SMILES: CCS(=O)(=O)c1ccc(CC(=O)Nc2cc(C)c3c(n2)CCC(C)(c2ccc(OC)nn2)C3=O)cc1 (single isomer, unassigned)
